According to patent US20210254056A1, “IDENTIFICATION AND TARGETED MODULATION OF GENE SIGNALING NETWORKS” (CAMP4 THERAPEUTICS CORPORATION, priority 2017, published 2021):

Test system: hepatocytes
Assay: RNA-seq of hepatocytes treated with Phase III failure compounds
Experimental: RNA-seq was performed to determine the effects of the compounds on hepatocytes.
Significance was determined by the criteria of FPKM≥0.5, a log 2(fold-change)≥1, and a […].

[1] = RNA-seq, hepatocytes, gene named in the value

CCN(CC)CCN(Cc1ccc(-c2ccc(C(F)(F)F)cc2)cc1)C(=O)Cn1c(SCc2ccc(F)cc2)nc(=O)c2c1CCC2 [Darapladib]
RNA-seq results, CYP2B6 expression: −0.12 | RNA-seq results, CYP2C19 expression: −0.01 | RNA-seq results, CYP2D6 expression: −0.21 | RNA-seq results, CYP3A4 expression: −0.47 | RNA-seq results, CYP7B1 expression: −0.03 | RNA-seq results, CYP39A1 expression: −0.23 | RNA-seq results: CYP2B6 expression: 0.25 | RNA-seq results: CYP2C19 expression: 0.54 | RNA-seq results: CYP2D6 expression: −0.06 | RNA-seq results: CYP3A4 expression: 0.07 | RNA-seq results: CYP7B1 expression: −0.46 | RNA-seq results: CYP39A1 expression: −0.07 | significant modulation of expression of disease genes (RNA-seq, q≤0.05, hepatocytes, genes in the value or listed in the block): significantly (q≤0.05) modulate expression | genes down-regulated by the compound [1]: ANGPTL3 was observed to be down-regulated | genes up-regulated by the compound [1]: up-regulated genes: LDLR, PCSK9, and HMGCR | RNA-seq results: A1BG expression (gene A1BG, hepatocytes): 0.01 | RNA-seq results: AGTR1 expression (gene AGTR1, hepatocytes): −0.18 | RNA-seq results: AGXT expression (gene AGXT, hepatocytes): −0.38 | RNA-seq results: AHI1 expression (gene AHI1, hepatocytes): 0.12 | RNA-seq results: AMPD3 expression (gene AMPD3, hepatocytes): 0.42 | RNA-seq results: AMT expression (gene AMT, hepatocytes): −0.35 | RNA-seq results: ANGPTL3 expression (gene ANGPTL3, hepatocytes): −1.20 | RNA-seq results: ANKS4B expression (gene ANKS4B, hepatocytes): −0.52 | RNA-seq results: ANKS6 expression (gene ANKS6, hepatocytes): 0.11 | RNA-seq results: ANPEP expression (gene ANPEP, hepatocytes): 0.11 | RNA-seq results: AOC2 expression (gene AOC2, hepatocytes): 0.28 | RNA-seq results: APOA2 expression (gene APOA2, hepatocytes): −0.33 | RNA-seq results: APOA5 expression (gene APOA5, hepatocytes): −0.19 | RNA-seq results: APOB expression (gene APOB, hepatocytes): 0.54 | RNA-seq results: COG5 expression (gene COG5, hepatocytes): 0.11 | RNA-seq results: COG6 expression (gene COG6, hepatocytes): −0.09 | RNA-seq results: COL1A1 expression (gene COL1A1, hepatocytes): 0.18 | RNA-seq results: COX6A1 expression (gene COX6A1, hepatocytes): −0.08 | RNA-seq results: CP expression (gene CP, hepatocytes): 0.77 | RNA-seq results: CPS1 expression (gene CPS1, hepatocytes): −0.89 | RNA-seq results: CPT1A expression (gene CPT1A, hepatocytes): 0.11 | RNA-seq results: CPT2 expression (gene CPT2, hepatocytes): −0.16 | RNA-seq results: CROT expression (gene CROT, hepatocytes): −0.49 | RNA-seq results: CSPP1 expression (gene CSPP1, hepatocytes): 0.24 | RNA-seq results: CTC1 expression (gene CTC1, hepatocytes): −0.01 | RNA-seq results: CTDSP2 expression (gene CTDSP2, hepatocytes): 0.52 | RNA-seq results: CTH expression (gene CTH, hepatocytes): 1.17 | RNA-seq results: CTNS expression (gene CTNS, hepatocytes): −0.11 | RNA-seq results: CTSF expression (gene CTSF, hepatocytes): 0.25 | RNA-seq results: CTSK expression (gene CTSK, hepatocytes): 0.31 | RNA-seq results: CYB5A expression (gene CYB5A, hepatocytes): −0.12 | RNA-seq results: CYB5R3 expression (gene CYB5R3, hepatocytes): −0.21 | RNA-seq results: CYP27A1 expression (gene CYP27A1, hepatocytes): −0.18 | RNA-seq results: DAO expression (gene DAO, hepatocytes): −1.06 | RNA-seq results: DBT expression (gene DBT, hepatocytes): −0.13 | RNA-seq results: DCDC2 expression (gene DCDC2, hepatocytes): −1.43 | RNA-seq results: DCXR expression (gene DCXR, hepatocytes): −0.74 | RNA-seq results: FABP1 expression (gene FABP1, hepatocytes): 0.07 | RNA-seq results: FADD expression (gene FADD, hepatocytes): −0.45 | RNA-seq results: FAM111A expression (gene FAM111A, hepatocytes): 0.1 | RNA-seq results: FAM111B expression (gene FAM111B, hepatocytes): −2.15 | RNA-seq results: FAN1 expression (gene FAN1, hepatocytes): −0.03 | RNA-seq results: FARS2 expression (gene FARS2, hepatocytes): −0.42 | RNA-seq results: FASLG expression (gene FASLG, hepatocytes): −1.32 | RNA-seq results: FGA expression (gene FGA, hepatocytes): −0.32 | RNA-seq results: FGD1 expression (gene FGD1, hepatocytes): −0.46 | RNA-seq results: FGFR2 expression (gene FGFR2, hepatocytes): −0.13 | RNA-seq results: FIG4 expression (gene FIG4, hepatocytes): −0.07 | RNA-seq results: FIS1 expression (gene FIS1, hepatocytes): −0.35 | RNA-seq results: FTCD expression (gene FTCD, hepatocytes): −0.56 | RNA-seq results: FTH1 expression (gene FTH1, hepatocytes): 0.44 | RNA-seq results: FUCA1 expression (gene FUCA1, hepatocytes): −0.13 | RNA-seq results: FXN expression (gene FXN, hepatocytes): −0.22 | RNA-seq results: G6PC3 expression (gene G6PC3, hepatocytes): −0.52 | RNA-seq results: G6PC expression (gene G6PC, hepatocytes): 0.6 | RNA-seq results: G6PD expression (gene G6PD, hepatocytes): −0.41 | RNA-seq results: GALK1 expression (gene GALK1, hepatocytes): −0.61 | RNA-seq results: GALK2 expression (gene GALK2, hepatocytes): −0.14 | RNA-seq results: GALT expression (gene GALT, hepatocytes): −0.58 | RNA-seq results: GATA6 expression (gene GATA6, hepatocytes): 0 | RNA-seq results: GATM expression (gene GATM, hepatocytes): −0.52 | RNA-seq results: GBA expression (gene GBA, hepatocytes): −0.23 | RNA-seq results: GBE1 expression (gene GBE1, hepatocytes): −0.11 | RNA-seq results: GCH1 expression (gene GCH1, hepatocytes): −0.19 | RNA-seq results: GCKR expression (gene GCKR, hepatocytes): −0.06 | RNA-seq results: GCLC expression (gene GCLC, hepatocytes): −0.02 | RNA-seq results: GOSH expression (gene GOSH, hepatocytes): −1.21 | RNA-seq results: RRM2B (gene RRM2B, hepatocytes): −0.49 | RNA-seq results: RSAD1 (gene RSAD1, hepatocytes): −0.13 | RNA-seq results: SAMHD1 (gene SAMHD1, hepatocytes): −0.48 | RNA-seq results: SC5D (gene SC5D, hepatocytes): 0.37 | RNA-seq results: SCARB1 (gene SCARB1, hepatocytes): −0.07 | RNA-seq results: SCN9A (gene SCN9A, hepatocytes): −0.42 | RNA-seq results: SDCCAG8 (gene SDCCAG8, hepatocytes): −0.06 | RNA-seq results: SEPN1 (gene SEPN1, hepatocytes): −0.10 | RNA-seq results: SERAC1 (gene SERAC1, hepatocytes): −0.02 | RNA-seq results: SERPINA1 (gene SERPINA1, hepatocytes): −0.05 | RNA-seq results: SERPING1 (gene SERPING1, hepatocytes): 0.21 | RNA-seq results: SERPINI1 (gene SERPINI1, hepatocytes): −0.42 | RNA-seq results: SETBP1 (gene SETBP1, hepatocytes): −0.10 | RNA-seq results: SFXN4 (gene SFXN4, hepatocytes): −0.38 | RNA-seq results: SLC10A1 (gene SLC10A1, hepatocytes): −0.68 | RNA-seq results: SLC10A3 (gene SLC10A3, hepatocytes): 0.47 | RNA-seq results: SLC10A5 (gene SLC10A5, hepatocytes): −0.54 | RNA-seq results: SLC10A7 (gene SLC10A7, hepatocytes): −0.22 | RNA-seq results: SLC11A2 (gene SLC11A2, hepatocytes): 0.39 | RNA-seq results: SLC19A1 (gene SLC19A1, hepatocytes): −0.26 | RNA-seq results: SLC19A2 (gene SLC19A2, hepatocytes): 0.54 | RNA-seq results: SLC19A3 (gene SLC19A3, hepatocytes): −0.22 | RNA-seq results: SLC22A1 (gene SLC22A1, hepatocytes): −0.28 | RNA-seq results: SLC22A5 (gene SLC22A5, hepatocytes): −0.23 | RNA-seq results: SLC25A1 (gene SLC25A1, hepatocytes): 0.24 | RNA-seq results: SLC25A10 (gene SLC25A10, hepatocytes): −0.48 | RNA-seq results: SLC25A12 (gene SLC25A12, hepatocytes): −0.22 | RNA-seq results: SLC25A13 (gene SLC25A13, hepatocytes): 0.20 | RNA-seq results: SLC25A15 (gene SLC25A15, hepatocytes): −0.28 | RNA-seq results: SLC25A19 (gene SLC25A19, hepatocytes): 0.03 | RNA-seq results: SLC25A20 (gene SLC25A20, hepatocytes): −0.62 | RNA-seq results: SLC25A29 (gene SLC25A29, hepatocytes): 0.92 | RNA-seq results: SLC25A32 (gene SLC25A32, hepatocytes): −0.21
